The target in one data set is UBE2G1. Kind of data set: reporter assay of Huesken 2005. Conditions: siRNA. In general terms: In a reporter assay the amount or activity of a reporter protein is the signal.
A further data set has as its target UBE2N. Kind of data set: reporter assay of Huesken 2005. Particulars: siRNA.

Oligonucleotides are written 5' to 3', each unit as a sugar letter and its base; * is a phosphorothioate linkage, no mark a phosphodiester; rarer units and linkages stand in square brackets, end groups in braces. Plain capitals give the bases only. Oligonucleotides are given in HELM: sugar(base)linkage, 5' to 3'; d 2'-deoxyribose, r ribose, m 2'-O-methylribose, p phosphate. ss, as = sense and antisense strand; d = 2'-deoxy (DNA); r = 2'-OH (RNA)
Further: test concentration or dose not given here.

For “sense rArGrArCrUrCrArCrCrUrGrCrUrArArUrGrUrUdTdT / antisense rArArCrArUrUrArGrCrArGrGrUrGrArGrUrCrUdCdC”, the normalised inhibition (eCFP-eYFP dual reporter) with UBE2G1 was determined as 81.1%.
In the case of “sense rArCrCrUrCrCrUrArArArArUrGrArArArUrUrCdTdT / antisense rGrArArUrUrUrCrArUrUrUrUrArGrGrArGrGrUdCdG”, the normalised inhibition (eCFP-eYFP dual reporter) in the data set with UBE2G1 came to 39.5%.
For the substance “sense rArArArGrUrUrGrCrCrCrGrCrUrGrUrGrUrArAdTdT / antisense rUrUrArCrArCrArGrCrGrGrGrCrArArCrUrUrUdTdC”, the normalised inhibition (eCFP-eYFP dual reporter) with UBE2G1 stood at 93.9%.
Consider “sense rArArGrUrUrGrCrCrCrGrCrUrGrUrGrUrArArGdTdT / antisense rCrUrUrArCrArCrArGrCrGrGrGrCrArArCrUrUdTdT”, for which the normalised inhibition (eCFP-eYFP dual reporter) in the data set with UBE2G1 was 79%.
In the case of “sense rArGrUrGrUrCrArUrUrUrCrUrArUrGrCrUrGrGdTdT / antisense rCrCrArGrCrArUrArGrArArArUrGrArCrArCrUdAdA”, in the data set with UBE2G1, the normalised inhibition (eCFP-eYFP dual reporter) was found to be 47.6%.
Consider “sense rGrGrArArArCrCrArUrCrArUrGrArUrUrArGrUdTdT / antisense rArCrUrArArUrCrArUrGrArUrGrGrUrUrUrCrCdAdC”, for which the normalised inhibition (eCFP-eYFP dual reporter) in the data set with UBE2G1 turned out to be 54.4%.
On to “sense rUrGrArArArArGrCrCrArGrArGrGrArArCrGrCdTdT / antisense rGrCrGrUrUrCrCrUrCrUrGrGrCrUrUrUrUrCrAdTdA”, for which the normalised inhibition (eCFP-eYFP dual reporter) in the data set with UBE2G1 was 35.9%.
As for “sense rGrArUrUrArUrCrCrCrCrUrCrCrGrArCrCrUrCdTdT / antisense rGrArGrGrUrCrGrGrArGrGrGrGrArUrArArUrCdTdT”, the normalised inhibition (eCFP-eYFP dual reporter) with UBE2G1 was found to be 84.7%.
The same measure, in the same setting: in the case of “sense rUrGrGrArGrArArUrUrUrArArArArGrArArArAdTdT / antisense rUrUrUrUrCrUrUrUrUrArArArUrUrCrUrCrCrAdTdT” it was 74.2%; in that of “sense rArUrGrArCrArArUrGrArUrCrUrCrUrArCrCrGdTdT / antisense rCrGrGrUrArGrArGrArUrCrArUrUrGrUrCrArUdCdT”, 40.5%; in that of “sense rUrArUrCrCrArCrArCrUrGrUrGrGrArArArCrCdTdT / antisense rGrGrUrUrUrCrCrArCrArGrUrGrUrGrGrArUrAdGdG”, 41.2%.
For “sense rGrArCrArArUrGrArUrCrUrCrUrArCrCrGrArUdTdT / antisense rArUrCrGrGrUrArGrArGrArUrCrArUrUrGrUrCdAdT”, in the data set with UBE2G1, the normalised inhibition (eCFP-eYFP dual reporter) worked out at 103%.
“sense rUrGrGrUrGrArUrGrUrGrUrGrCrArUrUrUrCrUdTdT / antisense rArGrArArArUrGrCrArCrArCrArUrCrArCrCrAdTdT”: the normalised inhibition (eCFP-eYFP dual reporter) with UBE2G1 was 85%.
On to “sense rGrArArGrUrCrCrUrUrArUrUrArUrUrGrGrCrCdTdT / antisense rGrGrCrCrArArUrArArUrArArGrGrArCrUrUrCdCdC”, for which, in the data set with UBE2G1, the normalised inhibition (eCFP-eYFP dual reporter) stood at 87.6%.
“sense rGrCrCrCrUrCrCrArGrArUrArCrArCrUrUrUrAdTdT / antisense rUrArArArGrUrGrUrArUrCrUrGrGrArGrGrGrCdCdA”: the normalised inhibition (eCFP-eYFP dual reporter) in the data set with UBE2G1 is 75.2%.
As to “sense rUrGrArUrGrUrGrUrGrCrArUrUrUrCrUrArUrUdTdT / antisense rArArUrArGrArArArUrGrCrArCrArCrArUrCrAdCdC”, in the data set with UBE2G1, the normalised inhibition (eCFP-eYFP dual reporter) was 74.8%.
In the case of “sense rCrArArUrGrArUrCrUrCrUrArCrCrGrArUrGrGdTdT / antisense rCrCrArUrCrGrGrUrArGrArGrArUrCrArUrUrGdTdC”, the normalised inhibition (eCFP-eYFP dual reporter) in the data set with UBE2G1 turned out to be 86.7%.
Regarding “sense rCrCrUrArArArArUrGrArArArUrUrCrArUrUrAdTdT / antisense rUrArArUrGrArArUrUrUrCrArUrUrUrUrArGrGdAdG”, the normalised inhibition (eCFP-eYFP dual reporter) in the data set with UBE2G1 was determined as 69.6%.
Same read-out and setting: in the case of “sense rCrUrGrGrGrGrArArGrArUrArArGrUrArUrGrGdTdT / antisense rCrCrArUrArCrUrUrArUrCrUrUrCrCrCrCrArGdGdC” it was 55%; in that of “sense rCrUrCrCrCrUrArUrCrCrArCrArCrUrGrUrGrGdTdT / antisense rCrCrArCrArGrUrGrUrGrGrArUrArGrGrGrArGdCdC”, 62.9%; in that of “sense rArGrArCrCrCrUrArArUrGrGrArGrArCrUrCrAdTdT / antisense rUrGrArGrUrCrUrCrCrArUrUrArGrGrGrUrCrUdGdC”, 89.8%.
The same measure, in the same setting: to “sense rUrUrUrCrUrGrCrArGrGrUrUrUrArArUrArGrAdTdT / antisense rUrCrUrArUrUrArArArCrCrUrGrCrArGrArArAdAdG” belongs 51.7%.
For “RNA1{r(A)p.r(U)p.r(C)p.r(A)p.r(U)p.r(C)p.r(C)p.r(U)p.r(A)p.r(A)p.r(U)p.r(G)p.r(U)p.r(A)p.r(G)p.r(A)p.r(C)p.r(A)p.r(A)p.d(T)p.d(T)}|RNA2{r(U)p.r(U)p.r(G)p.r(U)p.r(C)p.r(U)p.r(A)p.r(C)p.r(A)p.r(U)p.r(U)p.r(A)p.r(G)p.r(G)p.r(A)p.r(U)p.r(G)p.r(A)p.r(U)p.d(A)p.d(A)}$$$RNA1{StrandType:ss}|RNA2{StrandType:as}$”, the normalised inhibition (eCFP-eYFP dual reporter) with UBE2N worked out at 46.4%.
Take “RNA1{r(G)p.r(C)p.r(A)p.r(G)p.r(A)p.r(U)p.r(C)p.r(C)p.r(G)p.r(C)p.r(A)p.r(C)p.r(A)p.r(G)p.r(U)p.r(U)p.r(C)p.r(U)p.r(G)p.d(T)p.d(T)}|RNA2{r(C)p.r(A)p.r(G)p.r(A)p.r(A)p.r(C)p.r(U)p.r(G)p.r(U)p.r(G)p.r(C)p.r(G)p.r(G)p.r(A)p.r(U)p.r(C)p.r(U)p.r(G)p.r(C)p.d(A)p.d(G)}$$$RNA1{StrandType:ss}|RNA2{StrandType:as}$”: the normalised inhibition (eCFP-eYFP dual reporter) with UBE2N turned out to be 86.3%.
Regarding “RNA1{r(G)p.r(A)p.r(A)p.r(C)p.r(C)p.r(A)p.r(G)p.r(U)p.r(U)p.r(C)p.r(C)p.r(U)p.r(G)p.r(G)p.r(C)p.r(A)p.r(U)p.r(C)p.r(A)p.d(T)p.d(T)}|RNA2{r(U)p.r(G)p.r(A)p.r(U)p.r(G)p.r(C)p.r(C)p.r(A)p.r(G)p.r(G)p.r(A)p.r(A)p.r(C)p.r(U)p.r(G)p.r(G)p.r(U)p.r(U)p.r(C)p.d(T)p.d(G)}$$$RNA1{StrandType:ss}|RNA2{StrandType:as}$”, the normalised inhibition (eCFP-eYFP dual reporter) in the data set with UBE2N stood at 36%.
For the substance “RNA1{r(C)p.r(A)p.r(A)p.r(C)p.r(G)p.r(C)p.r(C)p.r(C)p.r(G)p.r(U)p.r(U)p.r(A)p.r(U)p.r(U)p.r(U)p.r(U)p.r(C)p.r(A)p.r(U)p.d(T)p.d(T)}|RNA2{r(A)p.r(U)p.r(G)p.r(A)p.r(A)p.r(A)p.r(A)p.r(U)p.r(A)p.r(A)p.r(C)p.r(G)p.r(G)p.r(G)p.r(C)p.r(G)p.r(U)p.r(U)p.r(G)p.d(C)p.d(T)}$$$RNA1{StrandType:ss}|RNA2{StrandType:as}$”, the normalised inhibition (eCFP-eYFP dual reporter) with UBE2N was 87.1%.
As for “RNA1{r(C)p.r(U)p.r(A)p.r(A)p.r(A)p.r(G)p.r(U)p.r(A)p.r(C)p.r(G)p.r(U)p.r(U)p.r(U)p.r(C)p.r(A)p.r(U)p.r(G)p.r(A)p.r(C)p.d(T)p.d(T)}|RNA2{r(G)p.r(U)p.r(C)p.r(A)p.r(U)p.r(G)p.r(A)p.r(A)p.r(A)p.r(C)p.r(G)p.r(U)p.r(A)p.r(C)p.r(U)p.r(U)p.r(U)p.r(A)p.r(G)p.d(G)p.d(G)}$$$RNA1{StrandType:ss}|RNA2{StrandType:as}$”, the normalised inhibition (eCFP-eYFP dual reporter) with UBE2N was 79.5%.
In the case of “RNA1{r(A)p.r(G)p.r(C)p.r(G)p.r(G)p.r(A)p.r(G)p.r(C)p.r(A)p.r(G)p.r(U)p.r(G)p.r(G)p.r(A)p.r(A)p.r(G)p.r(A)p.r(C)p.r(C)p.d(T)p.d(T)}|RNA2{r(G)p.r(G)p.r(U)p.r(C)p.r(U)p.r(U)p.r(C)p.r(C)p.r(A)p.r(C)p.r(U)p.r(G)p.r(C)p.r(U)p.r(C)p.r(C)p.r(G)p.r(C)p.r(U)p.d(A)p.d(C)}$$$RNA1{StrandType:ss}|RNA2{StrandType:as}$”, the normalised inhibition (eCFP-eYFP dual reporter) in the data set with UBE2N is 43.9%.
With “RNA1{r(G)p.r(U)p.r(A)p.r(G)p.r(A)p.r(C)p.r(A)p.r(A)p.r(G)p.r(U)p.r(U)p.r(G)p.r(G)p.r(G)p.r(A)p.r(A)p.r(G)p.r(A)p.r(A)p.d(T)p.d(T)}|RNA2{r(U)p.r(U)p.r(C)p.r(U)p.r(U)p.r(C)p.r(C)p.r(C)p.r(A)p.r(A)p.r(C)p.r(U)p.r(U)p.r(G)p.r(U)p.r(C)p.r(U)p.r(A)p.r(C)p.d(A)p.d(T)}$$$RNA1{StrandType:ss}|RNA2{StrandType:as}$”, in the data set with UBE2N, the normalised inhibition (eCFP-eYFP dual reporter) is 94%.
“RNA1{r(A)p.r(A)p.r(G)p.r(C)p.r(C)p.r(G)p.r(A)p.r(A)p.r(C)p.r(C)p.r(A)p.r(G)p.r(A)p.r(U)p.r(G)p.r(A)p.r(G)p.r(A)p.r(G)p.d(T)p.d(T)}|RNA2{r(C)p.r(U)p.r(C)p.r(U)p.r(C)p.r(A)p.r(U)p.r(C)p.r(U)p.r(G)p.r(G)p.r(U)p.r(U)p.r(C)p.r(G)p.r(G)p.r(C)p.r(U)p.r(U)p.d(T)p.d(G)}$$$RNA1{StrandType:ss}|RNA2{StrandType:as}$”: in the data set with UBE2N, the normalised inhibition (eCFP-eYFP dual reporter) is 88.3%.
The same measure, in the same setting: in the case of “RNA1{r(G)p.r(A)p.r(A)p.r(G)p.r(A)p.r(C)p.r(C)p.r(A)p.r(A)p.r(C)p.r(G)p.r(A)p.r(A)p.r(G)p.r(C)p.r(C)p.r(C)p.r(A)p.r(A)p.d(T)p.d(T)}|RNA2{r(U)p.r(U)p.r(G)p.r(G)p.r(G)p.r(C)p.r(U)p.r(U)p.r(C)p.r(G)p.r(U)p.r(U)p.r(G)p.r(G)p.r(U)p.r(C)p.r(U)p.r(U)p.r(C)p.d(C)p.d(A)}$$$RNA1{StrandType:ss}|RNA2{StrandType:as}$” it was 85.4%; in that of “RNA1{r(G)p.r(U)p.r(U)p.r(C)p.r(C)p.r(U)p.r(G)p.r(G)p.r(C)p.r(A)p.r(U)p.r(C)p.r(A)p.r(A)p.r(A)p.r(G)p.r(C)p.r(C)p.r(G)p.d(T)p.d(T)}|RNA2{r(C)p.r(G)p.r(G)p.r(C)p.r(U)p.r(U)p.r(U)p.r(G)p.r(A)p.r(U)p.r(G)p.r(C)p.r(C)p.r(A)p.r(G)p.r(G)p.r(A)p.r(A)p.r(C)p.d(T)p.d(G)}$$$RNA1{StrandType:ss}|RNA2{StrandType:as}$”, 78.2%.
With “RNA1{r(A)p.r(G)p.r(A)p.r(U)p.r(A)p.r(U)p.r(U)p.r(U)p.r(U)p.r(G)p.r(A)p.r(A)p.r(A)p.r(G)p.r(A)p.r(U)p.r(A)p.r(A)p.r(G)p.d(T)p.d(T)}|RNA2{r(C)p.r(U)p.r(U)p.r(A)p.r(U)p.r(C)p.r(U)p.r(U)p.r(U)p.r(C)p.r(A)p.r(A)p.r(A)p.r(A)p.r(U)p.r(A)p.r(U)p.r(C)p.r(U)p.d(A)p.d(G)}$$$RNA1{StrandType:ss}|RNA2{StrandType:as}$”, the normalised inhibition (eCFP-eYFP dual reporter) with UBE2N is 57.1%.

These data come from the OligoGym collection.
